# Experimental data: patent publication US7223745B2, “Proteasome inhibitors and methods of using the same” (Cephalon, Inc., priority 2003, dated 2007)
# Key:
# [1] = system: proteasome in Molt-4 cells; assay: Cellular assay for chymotrypsin-like activity of proteasome in Molt-4 cell line, EC50 determination; format: cell-based, human; conditions: MeOSuc-FLF-AFC substrate, 15 minutes preincubation at 37° C., read-out: MOLT4 (EC50)
# Experimental: The chymotrypsin-like activity of proteasome in Molt-4 cells (human leukemia) was assayed according to the following procedure. A brief description of the method was published previously (Harding et al., J. Immunol., 1995, 155, 1767).
# Molt-4 cells were washed and resuspended in HEPES-buffered Saline (5.4 mM KCl, 120 mM NaCl, 25 mM Glucose, 1.5 mM MgSO4, 1 mM Na pyruvate, 20 mM Hepes) and plated in 96-well microtiter white plates to a final concentration of 6×10^6 cells/mL. Then various 5× proteasome inhibitor concentrations (or diluted DMSO for controls), prepared from 250×DMSO solutions by diluting 50-fold using HEPES-buffered saline, were added to the plate to a final 1× concentration. After 15 minutes incubation at 37° C., a fluorimetric cell permeable substrate (MeOSuc-FLF-AFC) (methoxysuccinyl-Phe-Leu-Phe-7-amido-4-trifluoromethylcoumarin) purchased from Enzyme Systems Products, catalogue number AFC-88, was added to each well at a final concentration of 25 μM from a stock solution of 20 mM in DMSO. Reaction volumes were 100 μl per well.
# The concentration of free AFC was monitored every 1.5 min for 30 min ([…]) on a Polastar Optima, BMG Labtechnologies microplate reader, using an excitation wavelength of 390 nm and emission wavelength of 520 nm. Proteasome activity was determined under conditions in which substrate hydrolysis increased linearly with time and the change in fluorescent signal was proportional to the concentration of free AFC.
# EC50 values are typically defined as the concentration of a compound required to produce an inhibition of the enzyme's activity halfway between the minimum and the maximum response (0% and 85–90% respectively for this assay). EC50 values are useful indicators of the activity of a compound for its designated use.
# Inhibition of chymotrypsin-like activity of proteasome in Molt-4 cells was determined by incubating cells with various concentrations of putative inhibitors for 15 minutes at 37° C. prior to the addition of substrate. Each experimental condition was evaluated in triplicate, and replicate experiments were performed for the inhibitors described herein.
# [2] = target: T1, 20S Human Erythrocyte Proteasome (HEP) (Homo sapiens, UniProt P28074); assay: Chymotrypsin-like activity of 20S Human Erythrocyte Proteasome (HEP), IC50 determination; format: biochemical; conditions: Suc-LLVY-AMC substrate, 15 minutes preincubation at 37° C.
# T1 construct: 20S Human Erythrocyte Proteasome (HEP), purchased from Immatics Biotechnologies Inc; purchased Immatics Biotechnologies Inc., Tubingen, Germany; host or cells: human erythrocytes (natural source)
# Experimental: Proteasome chymotrypsin-like activity of compounds of the invention was assayed according to the following procedure.
# In 96-well microtiter plates, 20S Human Erythrocyte Proteasome (HEP), purchased from Immatics Biotechnologies Inc., Tubingen, Germany was plated at 0.2 μg/mL (about 0.6 nM catalytic sites) in 0.04% SDS 20 mM Tris buffer. A fluorimetric substrate Suc-LLVY-AMC (succinyl-Leu-Leu-Val-Tyr-7-amido-4-methylcoumarin), purchased from Sigma Inc., St. Louis, Mo., USA was added to a final concentration of 100 μM from a stock solution of 10 mM in dimethylsulfoxide. Reaction volumes were 100 μl per well. After incubation for various periods of time at 37° C., the concentration of free AMC (aminomethylcoumarin) was determined on a Perkin Elmer HTS 7000 Plus microplate reader, excitation 370 nm and emission 465 nm. Proteasome activity was determined under conditions in which substrate hydrolysis increased linearly with time and the change in fluorescence signal was proportional to the concentration of free AMC.
# IC50 values are typically defined as the concentration of a compound necessary to produce 50% inhibition of the enzyme's activity. IC50 values are useful indicators of the activity of a compound for its designated use. […] In some embodiments, the inhibitors show some specificity for HEP and the ratio of the IC50 for inhibition of bovine α-chymotrypsin versus the IC50 for inhibition of HEP, i.e, IC50 (α-Chymotripsin)/IC50 (HEP), is greater then about 100.
# Inhibition of the chymotrypsin-like activity of HEP and of bovine α-chymotrypsin was determined by incubating the enzyme with various concentrations of putative inhibitors for 15 minutes at 37° C. (or room temperature for α-chymotrypsin) prior to the addition of substrate. Each experimental condition was evaluated in triplicate, and replicate experiments were performed for the inhibitors described herein.
SMILES,EC50 [1],IC50 [2]
"COC(=O)CCCCCCC(=O)N[C@@H](CCCNC(=N)N[N+](=O)[O-])C(=O)N[C@@H](CC(C)C)B(O)O [Example 22, Boronic acid, [(1R)-1-[[(2S)-5-[[imino(nitroamino)methyl]amino]-2-[[7-(methoxycarbonyl)heptanoyl]amino]-1-oxopentyl]amino]-3-methylbutyl]]",> 10000 nM,< 10 nM
"CC(C)C[C@H](NC(=O)[C@H](CCCNC(=N)N[N+](=O)[O-])NC(=O)CCCCCCCCC#N)B(O)O [Example 21, Boronic acid, [(1R)-1-[[(2S)-5-[[imino(nitroamino)methyl]amino]-2-[(9-Cyanononanoyl)amino]-1-oxopentyl]amino]-3-methylbutyl]]",> 10000 nM,< 10 nM
"CC(C)C[C@H](NC(=O)[C@H](CCCNC(=N)N[N+](=O)[O-])NC(=O)CCCCCCCCCCC#N)B1O[C@@H]2C[C@@H]3C[C@@H](C3(C)C)[C@]2(C)O1 [Example 13, 11-Cyanoundecanamide, N-[(1S)-1-[[[(1R)-1-[(3aS,4S,6S,7aR)-hexahydro-3a,5,5-trimethyl-4,6-methano-1,3,2-benzodioxaborol-2-yl]-3-methylbutyl]amino]carbonyl]-4-[[imino(nitroamino)methyl]amino]butyl]-.]",< 200 nM,< 10 nM
"CCS(=O)(=O)NCCCCCC(=O)N[C@@H](CCCNC(=N)N[N+](=O)[O-])C(=O)N[C@@H](CC(C)C)B1O[C@@H]2C[C@@H]3C[C@@H](C3(C)C)[C@]2(C)O1 [Example 17, 6-(Ethanesulfonylamino)hexanamide, N-[(1S)-1-[[[(1R)-1-[(3aS,4S,6S,7aR)-hexahydro-3a,5,5-trimethyl-4,6-methano-1,3,2-benzodioxaborol-2-yl]-3-methylbutyl]amino]carbonyl]-4-[[imino(nitroamino)methyl]amino]butyl]]",> 10000 nM,< 100 nM
"CC(=O)NCCCCCC(=O)N[C@@H](CCCNC(=N)N[N+](=O)[O-])C(=O)N[C@@H](CC(C)C)B1O[C@@H]2C[C@@H]3C[C@@H](C3(C)C)[C@]2(C)O1 [Example 15, 6-(Acetylamino)hexanamide, N-[(1S)-1-[[[(1R)-1-[(3aS,4S,6S,7aR)-hexahydro-3a,5,5-trimethyl-4,6-methano-1,3,2-benzodioxaborol-2-yl]-3-methylbutyl]amino]carbonyl]-4-[[imino(nitroamino)methyl]amino]butyl]]",,< 100 nM
"CC(C)C[C@H](NC(=O)[C@H](CCCNC(=N)N[N+](=O)[O-])NC(=O)CCCCCCCCC#N)B1O[C@@H]2C[C@@H]3C[C@@H](C3(C)C)[C@]2(C)O1 [Example 14, 9–Cyanononamide, N-[(1S)-1-[[[(1R)-1-[(3aS,4S,6S,7aR)-hexahydro-3a,5,5-trimethyl-4,6-methano-1,3,2-benzodioxaborol-2-yl]-3-methylbutyl]amino]carbonyl]-4-[[imino(nitroamino)methyl]amino]butyl]]",< 200 nM,< 10 nM

# The next lines start with the values.
EC50 [1],IC50 [2],SMILES
< 2000 nM,< 10 nM,COC(=O)CCCCCCC(=O)N[C@@H](CCCNC(=N)N[N+](=O)[O-])C(=O)N[C@@H](CC(C)C)B1O[C@@H]2C[C@@H]3C[C@@H](C3(C)C)[C@]2(C)O1 [Example 12]
< 200 nM,< 10 nM,CCS(=O)(=O)NCCCCCCCC(=O)N[C@@H](CCCNC(=N)N[N+](=O)[O-])C(=O)N[C@@H](CC(C)C)B1O[C@@H]2C[C@@H]3C[C@@H](C3(C)C)[C@]2(C)O1 [Example 19]
> 10000 nM,< 10 nM,"CC(=O)NCCCCCC(=O)N[C@@H](CCCNC(=N)N[N+](=O)[O-])C(=O)N[C@@H](CC(C)C)B(O)O [Example 24, Boronic acid, [(1R)-1-[[(2S)-5-[[imino(nitroamino)methyl]amino]-2-[[6-(acetylamino)hexanoyl]amino]-1-oxopentyl]amino]-3-methylbutyl]]"
< 200 nM,< 10 nM,CC(C)C[C@H](NC(=O)[C@H](CCCNC(=N)N[N+](=O)[O-])NC(=O)CCCCCCCCCCCN1C(=O)c2ccccc2C1=O)B1O[C@@H]2C[C@@H]3C[C@@H](C3(C)C)[C@]2(C)O1 [Example 16]
< 200 nM,< 10 nM,"CC(C)C[C@H](NC(=O)[C@H](CCCNC(=N)N[N+](=O)[O-])NC(=O)CCCCCCCCCCCNC(=O)OC(C)(C)C)B1O[C@@H]2C[C@@H]3C[C@@H](C3(C)C)[C@]2(C)O1 [Example 11, 12-[(1,1-dimethylethoxy)carbonylamino]dodecanamide, N-[(1S)-1-[[[(1R)-1-[(3aS,4S,6S,7aR)-hexahydro-3a,5,5-trimethyl-4,6-methano-1,3,2-benzodioxaborol-2-yl]-3-methylbutyl]amino]earbonyl]-4-[[imino(nitroamino)methyl]amino]butyl]-]"
< 2000 nM,< 10 nM,"CC(C)C[C@H](NC(=O)[C@H](CCCNC(=N)N[N+](=O)[O-])NC(=O)CCCCCNS(=O)(=O)c1ccccc1)B1O[C@@H]2C[C@@H]3C[C@@H](C3(C)C)[C@]2(C)O1 [Example 18, 6-Benzenesulfonylaminohexanamide, N-[(1S)-1-[[[(1R)-1-[(3aS,4S,6S,7aR)-hexahydro-3a,5,5-trimethyl-4,6-methano-1,3,2-benzodioxaborol-2-yl]-3-methylbutyl]amino]carbonyl]-4-[[imino(nitroamino)methyl]amino]butyl]]"
< 10000 nM,< 10 nM,"CC(C)C[C@H](NC(=O)[C@H](CCCNC(=N)N[N+](=O)[O-])NC(=O)CCCCCCCCCCC#N)B(O)O [Example 20, Boronic acid, [(1R)-1-[[(2S)-5-[[imino(nitroamino)methyl]amino]-2-[(11-Cianoundecanoyl)amino]-1-oxopentyl]amino]-3-methylbutyl]]"
< 200 nM,< 10 nM,"CC(C)C[C@H](NC(=O)[C@H](CCCNC(=N)N[N+](=O)[O-])NC(=O)CCCCCCCCCN1C(=O)c2ccccc2C1=O)B1O[C@@H]2C[C@@H]3C[C@@H](C3(C)C)[C@]2(C)O1 [Example 10, 10-(1,3-Dioxo-1,3-dihydro-isoindol-2-yl)-decanamide, N-[(1S)-1-[[[(1R)-1-[(3aS,4S,6S,7aR)-hexahydro-3a,5,5-trimethyl-4,6-methano-1,3,2-benzodioxaborol-2-yl]-3-methylbutyl]amino]carbonyl]-4-[[imino(nitroamino)methyl]amino]butyl]-;]"
< 200 nM,< 10 nM,CC(C)C[C@H](NC(=O)[C@H](CCCNC(=N)N[N+](=O)[O-])NC(=O)CCCCCCCCCN1C(=O)c2ccccc2C1=O)B(O)O [Example 23]
